In article PMC8282797, “Strictly regulated agonist-dependent activation of AMPA-R is the key characteristic of TAK-653 for robust synaptic responses and cognitive improvement” (Scientific Reports, 2021):

Columns and labels:
[1] = test system: rats; experiment: Seizure and abnormal behavior of LY451646 and AMPA in rats; assay type: in vivo, rat; settings: i.p.
[2] = test system: rats; experiment: 5-choice serial reaction time task (5CSRTT); assay type: in vivo, rat; settings: 0.3 mg/kg, p.o.
Protocol: The experiment consists of two sessions, training and testing session. The training session was initiated with 7-week-old of male Long-Evans rats, and the testing session was conducted at 12-13 months old. Throughout the experimental period, food was restricted to 80-85% of their free-feeding body weight. The training and testing were conducted using four operant chambers enclosed in sound-attenuating boxes (Med Associates Inc., St Albans, VT). Each chamber contained a curved wall with five contiguous apertures. Food pellets were supplied automatically into a magazine located in the opposite wall of the five contiguous apertures in the chamber, and a photocell beam was used to detect head entries into the magazine. In the training session, a pellet was delivered into the magazine at the start of each session to facilitate initiation of the first trial. After a 5 s-intertrial interval (ITI), a light stimulus was presented in one of the five apertures followed by the 5 s-limited hold without light stimulus. […] Rats were required to nose-poke in the illuminated aperture. […] Incorrect responses (responses in non-illuminated apertures), omissions (failure to respond during the limited hold) and premature responses (responses occurring prior to the presentation of the stimulus) were punished by a 5 s-timeout periods with extinction of the house light and no delivery of food. Accuracy was calculated as the number of correct responses / (number of correct responses + number of incorrect responses) × 100. Each session lasted for 35 min or until 100 trials were completed. Rats were trained until they achieved criterion performance (>75% accuracy and <20 omissions) over 3 consecutive days. In the testing session, the duration of light stimuli on an aperture was set to 0.5 s with a variable ITI schedule (4, 5, 7, or 10 s). Equal numbers of each ITI were randomly presented over 100 trials. TAK-653 at 0.3 mg/kg or vehicle was orally administered 2 h prior to testing in a cross-over design. Data were indicated as the mean ± SEM of number of correct responses, omissions, and premature responses. For sub-population analyses, a median split of the population was undertaken based on their correct response scores under vehicle treatment to ensure no interaction with performance changes across the study (Robinson, 2012).

[3] = test system: rats; experiment: Exposure margin against seizure after acute treatment; assay type: in vivo, rat; settings: NOR improvement versus absence of seizure signs
Protocol: Thus, we decided to calculate the exposure safety margins of AMPA-R potentiators based on the cognitive improvement in the NOR test and the absence of signs of seizures. […] Thus, TAK-653 may have a wider exposure margin than LY451646 in rats.
The data were extracted from the studies conducted in accordance with the Good Laboratory Practice Regulation. […] The dose levels in the first study and second study were set at "100, 15 and 5 mg/kg, p.o." and "50, 15 and 5 mg/kg, p.o.", respectively. The dosing suspensions were administered into the stomach via a catheter in the morning at the dose volume of 5 mL/kg. Cage side observations to confirm tonic or […] convulsions were conducted before and at 1, 2, 4, 8 and 24 h after dosing in the first study and before and at 1, 4 and 24 h after dosing in the second study.
The Sprague–Dawley rats treated with orally administered TAK-653 were decapitated at each time point, and trunk blood was collected into 1.5-mL centrifuge tubes. Plasma was separated from the blood samples by centrifugation. The concentrations of TAK-653 in the plasma were determined using liquid chromatography/tandem mass spectrometry (LC/MS/MS).

[4] = test system: 97 targets; experiment: In vitro selectivity profile (Ricerca); settings: 10 μM
[5] = test system: BDNF mRNA; experiment: BDNF mRNA expression in mouse hippocampus; assay type: in vivo; settings: 3 and 10 mg/kg, p.o.
Protocol: Male ICR mice at 7 weeks old were treated with orally administered vehicle or TAK-653. For the repeated dose study, TAK-653 (0.3 mg/kg, p.o.) or vehicle was administered for 14 days. AMPA at designated doses was intravenously (i.v.) administered 1 h after oral administration. Three hours after i.v. administration of AMPA, right hippocampi were isolated from the mice by euthanasia and acutely frozen on dry ice. Total RNA from mouse hippocampus was extracted with RNeasy 96 kit (Qiagen, Hilden, Germany). Reverse transcription of total RNA was performed using the High-capacity cDNA Archive kit (Life Technologies, Carlsbad, CA). Real-time quantitative PCR was carried out using an ABI PRISM 7900HT sequence detection system (Life Technologies) using PCR reagents (Nippon Gene Co. Limited, Toyama, Japan). Primers used for BDNF analyses were as follows: BDNF forward primer, 5’-[…]-3’; BDNF reverse primer, 5’-[…]-3’; BDNF TaqMan probe, 5’-FAM- […]-TAMRA-3’. Primers used for Gadd45b analyses were as follows: Gadd45b forward primer, 5’-[…]-3’; Gadd45b reverse primer, 5’-GCGCCAGCCTCTGCAT-3’; Gadd45b TaqMan probe, 5’'-FAM-[…]-MGB-3’. […] Concentrations of GAPDH mRNA were used for internal controls and relative BDNF or Gadd45b mRNA/GAPDH mRNA levels were calculated.

Structure (SMILES) | Abnormal behavior ([1]; 10 mg/kg) | Seizure ([1]; 30 mg/kg) | Premature responses [2] | 5CSRTT performance in the whole population ([2]; 2 h prior to the trial) | Correct responses in the poor performing rats ([2]; median split) | Omissions in the poor performing rats ([2]; median split) | Margin based on AUCplasma [3] | Margin based on plasma Cmax [3] | Selectivity against 97 targets [4] | BDNF mRNA levels in hippocampus ([5]; AMPA (3.5 mg/kg, i.v.)-treated mice) | BDNF mRNA levels in hippocampus ([5]; compound alone)
Cc1onc(O)c1CC(N)C(=O)O (stereo not drawn) [AMPA, alpha-amino-3-hydroxy-5-methyl-4-isoxazole-propionic acid] | abnormal behavior such as head turning | induced seizure | – | – | – | – | – | – | – | – | –
CC1=CN2CCS(=O)(=O)N=C2C(c2ccc(OC3CCCCC3)cc2)=N1 [TAK-653, 9-[4-(Cyclohexyloxy)phenyl]-7-methyl-3,4-dihydropyrazino[2,1-c][1,2,4]thiadiazine 2,2-dioxide] | – | – | did not affect | no significant improvement | significantly increased | decreased | 1017 fold | 419 fold | highly selective | significantly increased | did not increase
